According to patent US7612104B2, “Bicyclic aryl-sulfonic acid [1,3,4]-thiadiazol-2-yl-amides, processes for their preparation, pharmaceutical compositions and methods for their use” (Sanofi-Aventis, priority 2005, dated 2009):

Target: T1, human PPARdelta (Homo sapiens, UniProt Q03181)
T1 construct: amino acids S139-Y441; expressed in transfected cells; host or cells: HEK cells, stably transfected (pcDNA3, CMV promoter)
T1 sequence (Q03181 139-441): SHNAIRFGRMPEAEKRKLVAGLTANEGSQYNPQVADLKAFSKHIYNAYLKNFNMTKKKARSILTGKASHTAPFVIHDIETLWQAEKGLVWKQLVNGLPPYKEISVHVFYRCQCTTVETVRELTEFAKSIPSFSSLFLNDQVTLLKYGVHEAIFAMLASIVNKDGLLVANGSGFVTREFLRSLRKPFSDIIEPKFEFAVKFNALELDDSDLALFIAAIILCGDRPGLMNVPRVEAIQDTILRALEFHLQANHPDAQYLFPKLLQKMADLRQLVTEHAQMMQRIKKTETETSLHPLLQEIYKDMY
Assay: Cellular PPARdelta assay (stably transfected HEK reporter cell line, luciferase)
Format: cell-based
Conditions: GR-GAL4-humanPPARdelta-LBD
Experimental: The activity of PPARalpha agonists is determined in a 3-day assay which is described below:
The PPARalpha reporter cell line is cultivated to 80% confluence in DMEM (#41965-039, Invitrogen) which is mixed with the following additions: 10% cs-FCS (fetal calf serum; #SH-30068.03, Hyclone), 0.5 mg/ml zeocin (#R250-01, Invitrogen), 0.5 mg/ml G418 (#10131-027, Invitrogen), 1% penicillin-streptomycin solution (#15140-122, Invitrogen) and 2 mM L-glutamine (#25030-024, Invitrogen). The cultivation takes place in standard cell culture bottles (#353112, Becton Dickinson) in a cell culture incubator at 37° C. in the presence of 5% CO2. The 80%-confluent cells are washed once with 15 ml of PBS (#14190-094, Invitrogen), treated with 3 ml of trypsin solution (#25300-054, Invitrogen) at 37° C. for 2 min, taken up in 5 ml of the DMEM described and counted in a cell counter. After dilution to 500.000 cells/ml, 35,000 cells are seeded in each well of a 96 well microtiter plate with a clear plastic base (#3610, Corning Costar). The plates are incubated in the cell culture incubator at 37° C. and 5% CO2 for 24 h.
PPARalpha agonists to be tested are dissolved in DMSO in a concentration of 10 mM. This stock solution is diluted in DMEM (#41965-039, Invitrogen) which is mixed with 5% cs-FCS (#SH-30068.03, Hyclone), 2 mM L-glutamine (#25030-024, Invitrogen) and the previously described antibiotics (zeocin, G418, penicillin and streptomycin). Test substances are tested in 11 different concentrations in the range from 10 μM to 100 pM.
The medium of the PPARalpha reporter cell line seeded on day 1 is completely removed by aspiration, and the test substances diluted in medium are immediately added to the cells. The dilution and addition of the substances is carried out by a robot (Beckman FX). The final volume of the test substances diluted in medium is 100 μl per well of a 96 well microtiter plate. The DMSO concentration in the assay is less than 0.1% v/v in order to avoid cytotoxic effects of the solvent.
The assay plates are incubated in an incubator at 37° C. and 5% CO2 for 24 h.
The PPARalpha reporter cells treated with the test substances are removed from the incubator, and the medium is aspirated off. The cells are lyzed by pipetting 50 μl of Bright Glo reagent (from Promega) into each well of a 96 well microtiter plate. After incubation at room temperature in the dark for 10 minutes, the microtiter plates are measured in the luminometer (Trilux from Wallac). The measuring time for each well of a microtiter plate is 1 sec.
The raw data from the luminometer are transferred into a Microsoft Excel file. Dose-effect plots and EC50 values of PPAR agonists are calculated using the XL.Fit program as specified by the manufacturer (IDBS).
The potency of substances which bind to human PPARdelta and activate it in an agonistic manner is analyzed using a stably transfected HEK cell line (HEK=human embryo kidney) which is referred to here as PPARdelta reporter cell line. In analogy to the assay described for PPARalpha, the PPARdelta reporter cell line also contains two genetic elements, a luciferase reporter element (pdeltaM-GAL4-Luc-Zeo) and a PPARdelta fusion protein (GR-GAL4-humanPPARdelta-LBD) which mediates expression of the luciferase reporter element depending on a PPARdelta ligand. The stably and constitutively expressed fusion protein GR-GAL4-humanPPARdelta-LBD binds in the cell nucleus of the PPARdelta reporter cell line via the GAL4 protein portion to the GAL4 DNA binding motifs 5′-upstream of the luciferase reporter element which is stably integrated in the genome of the cell line. There is only little expression of the luciferase reporter gene in the absence of a PPARdelta ligand if fatty acid-depleted fetal calf serum (cs-FCS) is used in the assay. PPARdelta ligands bind and activate the PPARdelta fusion protein and thereby stimulate expression of the luciferase reporter gene. […]

Structure (SMILES) | EC50 [nM]
CCOc1cc(C(F)(F)F)ccc1C(=O)NC1Cc2ccc(S(=O)(=O)Nc3nnc(C(C)C)s3)cc2C1 (single isomer, unassigned; enantiomer 2) [Example 1.2, 2-Ethoxy-N-[5-(5-isopropyl-[1,3,4]thiadiazol-2-ylsulfamoyl)-indan-2-yl]-4-trifluoromethyl-benzamide (Enantiomer 2)] | 50
CCOc1cc(C(F)(F)F)ccc1C(=O)N[C@H]1CCc2ccc(S(=O)(=O)Nc3nnc(C(C)C)s3)cc2C1 [Example 5, 2-Ethoxy-N-[(S)-7-(5-isopropyl-[1,3,4]thiadiazol-2-ylsulfamoyl)-1,2,3,4-tetrahydro-naphthalen-2-yl]-4-trifluoromethyl-benzamide] | 600
CCOc1cc(C(F)(F)F)ccc1C(=O)N[C@@H]1CCc2ccc(S(=O)(=O)Nc3nnc(C(C)C)s3)cc2C1 [Example 6, 2-Ethoxi-N-[(R)-7-(5-isopropyl-[1,3,4]thiadiazol-2-ylsulfamoyl)-1,2,3,4-tetrahydro-naphthalene-2-yl]-4-trifluoromethyl-benzamide] | 600
CCOc1cc(C(F)(F)F)sc1C(=O)NC1Cc2ccc(S(=O)(=O)Nc3nnc(C(C)C)s3)cc2C1 (stereo not drawn) [Example 11, 3-Ethoxy-5-trifluoromethyl-thiophene-2-carboxylic acid [5-(5-isopropyl-[1,3,4]thiadiazol-2-ylsulfamoyl)-indan-2-yl]-amide] | 1

Continued, values first:

EC50 [nM] | Structure (SMILES)
1 | CCOc1cc(C(F)(F)F)ccc1C(=O)NC1Cc2ccc(S(=O)(=O)Nc3nnc(C(C)C)s3)cc2C1 (racemic) [Example 1, 2-Ethoxy-N-[5-(5-isopropyl-[1,3,4]thiadiazol-2-ylsulfamoyl)-indan-2-yl]-4-trifluoromethyl-benzamide]
1 | CCOc1cc(C(F)(F)F)ccc1C(=O)NC1Cc2ccc(S(=O)(=O)Nc3nnc(C(C)C)s3)cc2C1 (single isomer, unassigned; enantiomer 1) [Example 1.1, 2-Ethoxy-N-[5-(5-isopropyl-[1,3,4]thiadiazol-2-ylsulfamoyl)-indan-2-yl]-4-trifluoromethyl-benzamide (Enantiomer 1)]
